US11229675B2, “Therapeutic peptides for excitatory neurotoxicity-related injuries” (Biocells (Beijing) Biotech Co., Ltd., priority 2016, dated 2022)
“And” between values parts separate entries of the source, which are not always exact repeats. Identical values can stand only once. Where no end group is shown, it is not given here.

Key:
rats = assay: Acute toxicity test on rats; format: in vivo, rat; conditions: 200 mg/kg body weight
Experimental: Acute toxicity tests were performed on rats.

MCAO model rats [1] = assay: HE staining for histological changes in brains of MCAO rats; format: in vivo, rat; conditions: therapeutic and prophylactic administration, 10 mg/kg, 24 h after ischemia
Experimental: The rats in each group were decapitated at 24 h after ischemia, and the resultant brain was coronally sectioned near the optic chiasm with a thickness of about 4 mm. The sections were fixed with 10% formalin solution and dehydrated with alcohol with a concentration gradient from 70% to 100%. The sections were permeabilized twice in xylene, and embedded in paraffin. The paraffin block was carefully trimmed, and immobilized on a paraffin slicing machine, and sliced to sections with a thickness of 4 μm. The paraffin sections were completely unfolded, attached to a clean and dry glass slide, and stored in a refrigerator at 4° C. Conventional HE staining was performed, and the staining results were observed by light microscopy.

MCAO model rats [2] = assay: Cerebral infarction volume (TTC staining) in MCAO model rats; conditions: rat, in vivo
Experimental: The focal cerebral ischemia-reperfusion model was prepared according to the reversible middle cerebral artery occlusion (MCAO) suture method proposed by Longa with modifications in view of the anatomical structure of the rat brain. The rats were anesthetized by intraperitoneal administration of 10% chloral hydrate at a dose of […]. After anesthetization, a cut was created at the cervical midline, and the common carotid artery (CCA), external carotid artery (ECA) and pterygopalatine artery were exposed. The head portion (0.5 cm) of a monofilament nylon fishing line (0.26 mm) was coated with paraffin and a mark was made at 20 mm. All rats were inserted through the right CCA incision, and the pterygopalatine artery was temporarily clamped to prevent mis-insertion. The length of the occlusion line was about 18-20 mm from the bifurcation of CCA depending on the animal's weight, thereby occluding middle cerebral artery on the right side. The skin was then sewed, and the tail end of the occlusion line was partially fixed to the skin. After a period of ischemia for 2 hours, the occlusion line was carefully pulled out to form a reperfusion. The procedure steps for the sham control were the same as the surgery group, except for insertion of a nylon fishing line. The body temperature was maintained at 37±0.5° C. during the ischemia period and 2 h after reperfusion.
The used animals were male adult SD rats (Vittalia) of SPF grade with body weight of 220-250 g.
No drugs were administered to the normal group and the sham group.
The rats were sacrificed by decapitation after scoring. The brain tissues were quickly removed and placed in a refrigerator at −20° C. After 10 minutes, the tissues were placed in a room temperature environment. The brains were placed in a rat brain section mold. After the olfactory bulb, cerebellum and low brain stem were removed, the brains were coronally cut five times at 2 mm thickness as shown in the profile to obtain six continuous raw coronal slices. Then, the brain sections were quickly placed in a 5 ml solution containing 2% TTC, and incubated at 37° C. for 30 minutes in the dark, during which the brain sections were flipped once every 5 minutes. With the TTC staining, the normal tissue would be rose red, and the infarcted tissue would be unstained and retained white. Each group of brain sections was arranged neatly, and photographed. The photos were processed by an image analysis system software and statistically analyzed. The infarction area of each brain section was calculated, and multiplied by the thickness of each brain section (2 mm). The products of the infarction area of individual brain section multiplied by the thickness were summed to obtain the cerebral infarction volume for each animal. The volumes were expressed as percentages accounting for the cerebral hemisphere to eliminate the effects of cerebral edema.

Molecule | acute toxicity (rats) | pathological changes of brain tissue (HE staining) (MCAO model rats [1]) | Mean of infarction volume percentage (MCAO model rats [2]) | Mean of infarction volume percentage (MCAO model rats [2]; 1 mg/kg) | Reduction of infarction volume percentage vs model group (MCAO model rats [2]; 1 mg/kg) | Mean of infarction volume percentage (MCAO model rats [2]; 3 mg/kg) | Reduction of infarction volume percentage vs model group (MCAO model rats [2]; 3 mg/kg) | effect on cerebral infarction volume (MCAO model rats [2]; 3 mg/kg) | Mean of infarction volume percentage (MCAO model rats [2]; 10 mg/kg) | Reduction of infarction volume percentage vs model group (MCAO model rats [2]; 10 mg/kg) | reduction of cerebral infarction volume (MCAO model rats [2]; 10 mg/kg)
CC[C@H](C)[C@H](NC(=O)[C@H](CCC(=O)O)NC(=O)[C@@H](NC(=O)[C@H](CC(=O)O)NC(=O)[C@H](CC(C)C)NC(=O)[C@H](CC(C)C)NC(=O)[C@H](CCCCN)NC(=O)[C@H](CCC(=O)O)NC(=O)[C@H](Cc1ccc(O)cc1)NC(=O)[C@H](CCCNC(=N)N)NC(=O)[C@H](CCCNC(=N)N)NC(=O)[C@H](CCCNC(=N)N)NC(=O)[C@H](CCC(N)=O)NC(=O)[C@H](CCCNC(=N)N)NC(=O)[C@H](CCCNC(=N)N)NC(=O)[C@H](CCCCN)NC(=O)[C@H](CCCCN)NC(=O)[C@H](CCCNC(=N)N)NC(=O)CNC(=O)[C@@H](N)Cc1ccc(O)cc1)[C@@H](C)O)C(=O)O [P5] | no lethal effect and other obvious toxic side effects | significantly improved | 24.84% and 36.54% and 43.22% | 44.23% | 3.76% | 35.66% | 22.41% | desirably reduced the cerebral infarction volume | 19.54% | 57.48% | about 50%
YGRKKRRQRRRKLSSIESDV [NA-1, reference compound] | – | – | 38.56% | – | – | – | – | – | – | – | –
YGRKKRRQRRRYEKLSSIESDV [YE-NA-1, reference compound] | – | – | 33.96% | – | – | – | – | – | – | – | –
